Our source for the inhibition and IC50 values is US8168651B2, “Protein kinase modulators” (Cylene Pharmaceuticals, Inc., priority 2008, dated 2012).

Each structure is given as a SMILES string.

The target in one assay is recombinant human PIM1 (Homo sapiens (Human), UniProt P11309). Put plainly: PIM-1 kinase activity in cell-free in vitro assay. Format: biochemical. The following applies: cell-free assay; for inhibition at 0.5 µM: 500 nM compound, read-out: PIM-1: % inh 500 nM.
The test system of another assay is MV-4-11. Put plainly: Cell proliferation modulatory activity, MV-4-11. The assay is classed as cell-based. The conditions noted are these: Homo sapiens, MV4-11; MV-4-11 cells.
A further assay deals with K-562. Kind of assay: Cell proliferation modulatory activity, K-562. Format: cell-based. The following applies: Homo sapiens, K562; K-562 cells.
The target of a further assay is recombinant human CK2 (Homo sapiens (Human), UniProt P68400). Put plainly: CK2 assay (cell-free, 33P-ATP filter plate). Format: biochemical. The conditions noted are these: 500 nM compound, cell-free assay; read-out: CK2: % inh 500 nM.
Assay [1] relates to HCT-116 human colorectal carcinoma cells. Put plainly: Cell-proliferation assay using Alamar Blue dye.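 Further: cells exposed to compound for about 4 days, then Alamar Blue added and dye fluorescence read after about 4 h, compared with medium-only control wells.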 The assay is classed as cell-based. The following applies: Homo sapiens, HCT-116, second HCT-116 column (c8); read-out: HCT-116 (uM) cell proliferation modulatory activity.

recombinant human PIM1, sequence (P11309 whole entry): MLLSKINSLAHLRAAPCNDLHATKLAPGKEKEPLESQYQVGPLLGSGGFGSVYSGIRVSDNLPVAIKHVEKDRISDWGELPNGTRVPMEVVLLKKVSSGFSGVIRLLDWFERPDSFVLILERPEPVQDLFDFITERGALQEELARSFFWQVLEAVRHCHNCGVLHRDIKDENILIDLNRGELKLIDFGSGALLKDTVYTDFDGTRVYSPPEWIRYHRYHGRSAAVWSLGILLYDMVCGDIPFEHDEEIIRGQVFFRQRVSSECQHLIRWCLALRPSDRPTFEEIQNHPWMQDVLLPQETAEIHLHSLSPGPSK
recombinant human CK2, sequence (P68400 whole entry): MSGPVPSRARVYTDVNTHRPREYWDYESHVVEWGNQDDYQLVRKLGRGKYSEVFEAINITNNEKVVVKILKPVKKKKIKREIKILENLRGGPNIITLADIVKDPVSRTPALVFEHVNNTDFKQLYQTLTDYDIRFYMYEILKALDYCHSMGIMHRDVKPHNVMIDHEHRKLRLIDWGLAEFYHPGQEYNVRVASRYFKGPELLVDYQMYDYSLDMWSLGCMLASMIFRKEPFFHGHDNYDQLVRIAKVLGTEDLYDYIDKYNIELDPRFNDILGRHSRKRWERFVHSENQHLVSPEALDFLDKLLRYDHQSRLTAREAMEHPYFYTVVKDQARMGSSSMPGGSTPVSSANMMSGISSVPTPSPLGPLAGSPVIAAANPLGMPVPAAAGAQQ
recombinant human CK2, sequence (P67870 whole entry partner): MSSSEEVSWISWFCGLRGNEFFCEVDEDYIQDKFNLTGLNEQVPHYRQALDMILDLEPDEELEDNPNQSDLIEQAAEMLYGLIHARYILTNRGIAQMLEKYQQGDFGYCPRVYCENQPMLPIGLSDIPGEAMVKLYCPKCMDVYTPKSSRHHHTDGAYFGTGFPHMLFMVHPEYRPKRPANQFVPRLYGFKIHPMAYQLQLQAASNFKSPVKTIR

For the compound `CN(C)C1CCN(c2nc3cc(C#N)ccc3c3sccc23)CC1`, the inhibition at 0.5 µM at recombinant human PIM1 was 20.3%; on recombinant human CK2, -0.522%. Besides, the IC50 was 6.05 µM in the assay with MV-4-11, more than 10 µM in the assay with K-562 and 6.57 µM in assay [1].

Take `CN1CCCC1CNc1nc2cc(C#N)ccc2c2sccc12` (stereo not drawn): the inhibition at 0.5 µM at recombinant human PIM1 was 8.14%; at recombinant human CK2, 0.724%. Further, the IC50 in the assay on MV-4-11 was found to be 3.74 µM; in the assay with K-562, 6.5 µM; in assay [1] it was 4.41 µM.

As for `N#Cc1ccc2c(c1)nc(N1CCC(N3CCCC3)CC1)c1ccsc12`, the inhibition at 0.5 µM on recombinant human PIM1 was 35.7%; on recombinant human CK2, -6.67%. In addition, the IC50 in the assay on MV-4-11 stood at 3.36 µM; with K-562 it was 6.94 µM; in assay [1], 5.66 µM.

`N#Cc1ccc2c(c1)nc(NCc1ccccn1)c1ccsc12`: the inhibition at 0.5 µM is 2.17% on recombinant human PIM1 and 100% at recombinant human CK2. Besides, the IC50 (in the assay with MV-4-11; with K-562; in assay [1]) was more than 10 µM in each case.

For the compound `N#Cc1ccc2c(c1)nc(NCCc1ccccn1)c1ccsc12`, the inhibition at 0.5 µM is 10.6% at recombinant human PIM1 and 5.18% at recombinant human CK2. Moreover, the IC50 (in the assay on MV-4-11; in the assay on K-562; in assay [1]) was more than 10 µM throughout.

As for `CN(CCc1ccccn1)c1nc2cc(C#N)ccc2c2sccc12`, the values for the inhibition at 0.5 µM on recombinant human PIM1 and on recombinant human CK2 were 19.4% and 44.5%, respectively. Besides, the IC50 (in the assay on MV-4-11; with K-562; in assay [1]) was more than 10 µM in each case.

`N#Cc1ccc2c(c1)nc(N1CCC(c3cccnc3)C1)c1ccsc12` (stereo not drawn): the inhibition at 0.5 µM on recombinant human PIM1 is -11.2%; at recombinant human CK2, 0.642%. The IC50 (with MV-4-11; in the assay with K-562; in assay [1]) was more than 10 µM throughout.

`N#Cc1ccc2c(c1)nc(N1CCN(c3ccccn3)CC1)c1ccsc12`: the results for the inhibition at 0.5 µM at recombinant human PIM1 and on recombinant human CK2 were 11% and 7.66%, respectively. The IC50 (with MV-4-11; with K-562; in assay [1]) was more than 10 µM throughout.

Take `N#Cc1ccc2c(c1)nc(N1CCNC(=O)C1)c1ccsc12`: the inhibition at 0.5 µM at recombinant human PIM1 is 8.04%; at recombinant human CK2, -4.51%. Besides, the IC50 (with MV-4-11; in the assay on K-562; in assay [1]) was more than 10 µM each time.

As to `CC(=O)NC1CCN(c2nc3cc(C#N)ccc3c3sccc23)C1` (stereo not drawn), the inhibition at 0.5 µM at recombinant human PIM1 was 5.75%; on recombinant human CK2, -8.88%. Further, the IC50 (in the assay on MV-4-11; in the assay on K-562; in assay [1]) was more than 10 µM in each case.

Turning to `CC(=O)N1CCN(c2nc3cc(C#N)ccc3c3sccc23)CC1`, the inhibition at 0.5 µM worked out at 7.13% at recombinant human PIM1 and 3.48% on recombinant human CK2. Besides, the IC50 (in the assay on MV-4-11; with K-562; in assay [1]) was more than 10 µM throughout.

In the case of `N#Cc1ccc2c(c1)nc(N1CCC[C@H]1C(N)=O)c1ccsc12`, the values for the inhibition at 0.5 µM at recombinant human PIM1 and on recombinant human CK2 were 12.2% and 4.42%, respectively. Also, the IC50 (with MV-4-11; with K-562; in assay [1]) was more than 10 µM throughout.

In the case of `CN1CCN(c2nc3cc(C#N)ccc3c3sccc23)CC1`, the inhibition at 0.5 µM on recombinant human PIM1 is 15.8%; on recombinant human CK2, 24.3%. The IC50 in the assay with MV-4-11 is 4.79 µM; with K-562, more than 10 µM; in assay [1], 8.77 µM.

On to `CN1CC(Nc2nc3cc(C#N)ccc3c3sccc23)C1`, for which the inhibition at 0.5 µM at recombinant human PIM1 came to 0.859%; on recombinant human CK2, 20.6%. The IC50 was 0.882 µM in the assay on MV-4-11, more than 10 µM in the assay on K-562 and 0.437 µM in assay [1].

Regarding `CC(C)(C)OC(=O)N1CCC(Nc2nc3cc(C#N)ccc3c3sccc23)CC1`, the inhibition at 0.5 µM at recombinant human PIM1 was 2.44%; at recombinant human CK2, 1.98%. The IC50 (with MV-4-11; in the assay with K-562; in assay [1]) was more than 10 µM in each case.

Consider `N#Cc1ccc2c(c1)nc(NC1CCNCC1)c1ccsc12`, for which the inhibition at 0.5 µM was 70.1% at recombinant human PIM1 and 27.1% on recombinant human CK2. In addition, the IC50 was 0.416 µM at recombinant human PIM1, 1.26 µM in the assay on MV-4-11, more than 10 µM in the assay with K-562 and 3.15 µM in assay [1].

Regarding `CC(C)(C)OC(=O)NC1CCN(c2nc3cc(C#N)ccc3c3sccc23)C1` (stereo not drawn), the inhibition at 0.5 µM at recombinant human PIM1 is 10%; on recombinant human CK2, 11%. In addition, the IC50 (with MV-4-11; in the assay with K-562; in assay [1]) was more than 10 µM in each case.

For the compound `N#Cc1ccc2c(c1)nc(N1CCC(N)C1)c1ccsc12` (stereo not drawn), the figures for the inhibition at 0.5 µM at recombinant human PIM1 and at recombinant human CK2 were 9.1% and -2.47%, respectively. Also, the IC50 (in the assay on MV-4-11; in the assay with K-562; in assay [1]) was more than 10 µM in each case.

For `CN1CCC(Nc2nc3cc(C#N)ccc3c3sccc23)CC1`, the inhibition at 0.5 µM is 59.1% on recombinant human PIM1 and -8.22% on recombinant human CK2. Further, the IC50 at recombinant human PIM1 is 1.03 µM; in the assay with MV-4-11 it was 7.52 µM; in the assay on K-562 it was more than 10 µM; in assay [1], 3.44 µM.

With `CC(C)(C)OC(=O)N1CCN(c2nc3cc(C#N)ccc3c3sccc23)CC1`, the inhibition at 0.5 µM was -30.9% at recombinant human PIM1 and -35% at recombinant human CK2. Moreover, the IC50 (in the assay on MV-4-11; with K-562; in assay [1]) was more than 10 µM in each case.

`N#Cc1ccc2c(c1)nc(N1CCNCC1)c1ccsc12`: the values for the inhibition at 0.5 µM at recombinant human PIM1 and on recombinant human CK2 were 7.88% and -27.3%, respectively. Further, the IC50 in the assay on MV-4-11 was 9.33 µM; with K-562 it was more than 10 µM; in assay [1], 4.09 µM.

Turning to `CC(C)(C)OC(=O)NCCCNc1nc2cc(C#N)ccc2c2sccc12`, the inhibition at 0.5 µM on recombinant human PIM1 was -30.8%; on recombinant human CK2 it was -11.5%. Also, the IC50 (in the assay on MV-4-11; in the assay with K-562; in assay [1]) was more than 10 µM throughout.

`N#Cc1ccc2c(c1)nc(NCCCN)c1ccsc12`: the inhibition at 0.5 µM at recombinant human PIM1 came out at 76.6%; on recombinant human CK2 it was 61.4%. For the same compound, the IC50 on recombinant human PIM1 is 0.129 µM; in the assay with MV-4-11, more than 10 µM; with K-562, more than 10 µM; in assay [1], 2.51 µM.

Take `CC(C)(C)OC(=O)N1CCCC1CNc1nc2cc(C#N)ccc2c2sccc12` (stereo not drawn): the values for the inhibition at 0.5 µM at recombinant human PIM1 and at recombinant human CK2 were -14.7% and -35.2%, respectively. The IC50 (in the assay on MV-4-11; with K-562; in assay [1]) was more than 10 µM each time.

As for `N#Cc1ccc2c(c1)nc(NCC1CCCN1)c1ccsc12` (stereo not drawn), the inhibition at 0.5 µM is 14.1% at recombinant human PIM1 and -23.8% at recombinant human CK2. The IC50 was 2.44 µM in the assay with MV-4-11, more than 10 µM with K-562 and 2.73 µM in assay [1].

`CC(C)(C)OC(=O)N1CCCC1CCNc1nc2cc(C#N)ccc2c2sccc12` (stereo not drawn): the inhibition at 0.5 µM is -13% on recombinant human PIM1 and -22.4% on recombinant human CK2. For the same compound, the IC50 (in the assay on MV-4-11; with K-562; in assay [1]) was more than 10 µM in each case.

Regarding `N#Cc1ccc2c(c1)nc(NCCC1CCCN1)c1ccsc12` (stereo not drawn), the values for the inhibition at 0.5 µM on recombinant human PIM1 and on recombinant human CK2 were 36.2% and 37.1%, respectively. Moreover, the results for the IC50 (in the assay on MV-4-11; in the assay on K-562; in assay [1]) were 2.82 µM, more than 10 µM and 1.87 µM, respectively.

In the case of `CN(c1nc2cc(C#N)ccc2c2sccc12)C(C1CC1)C1CC1`, the inhibition at 0.5 µM at recombinant human PIM1 is -19%; on recombinant human CK2, -17.1%. The IC50 (in the assay on MV-4-11; in the assay on K-562; in assay [1]) was more than 10 µM each time.

As for `CN(C)CCCN(C)c1nc2cc(-c3nnn[nH]3)ccc2c2sccc12`, the inhibition at 0.5 µM came out at 70.5% on recombinant human PIM1 and 60.1% at recombinant human CK2. Further, the IC50 at recombinant human PIM1 is 0.221 µM; with MV-4-11, more than 10 µM; in the assay with K-562 it was more than 10 µM; in assay [1], more than 10 µM.

As to `CNC(=O)c1ccc2c(c1)nc(NCCN(C)C)c1ccsc12`, the results for the inhibition at 0.5 µM at recombinant human PIM1 and on recombinant human CK2 were 5.73% and 8.24%, respectively. In addition, the IC50 in the assay with MV-4-11 was 0.535 µM; in the assay with K-562, more than 10 µM; in assay [1], more than 10 µM.

Take `CN(C)CCNc1nc2cc(C(=O)NC3CC3)ccc2c2sccc12`: the inhibition at 0.5 µM was determined as 13.7% at recombinant human PIM1 and 1.39% at recombinant human CK2. Moreover, the IC50 in the assay with MV-4-11 is more than 10 µM; in the assay with K-562 it was 1.89 µM; in assay [1], 2.34 µM.

For the compound `CN(C)CCNc1nc2cc(C(=O)N(C)C)ccc2c2sccc12`, the results for the inhibition at 0.5 µM on recombinant human PIM1 and at recombinant human CK2 were -3.56% and 11.8%, respectively. Moreover, the figures for the IC50 (in the assay with MV-4-11; in the assay on K-562; in assay [1]) were 0.999 µM, more than 10 µM and more than 10 µM, respectively.

In the case of `CN(C)CCNc1nc2cc(C(N)=O)ccc2c2sccc12`, the inhibition at 0.5 µM at recombinant human PIM1 was 34%; on recombinant human CK2 it was 15.6%. In addition, the figures for the IC50 (with MV-4-11; in the assay with K-562; in assay [1]) were 0.402 µM, 0.198 µM and 4.29 µM, respectively.

With `CN1CCC(Nc2nc3cc(-c4nnn[nH]4)ccc3c3sccc23)CC1`, the inhibition at 0.5 µM on recombinant human PIM1 was found to be 83.9%; on recombinant human CK2, 1.28%. The IC50 at recombinant human PIM1 is 0.161 µM; in the assay with MV-4-11, more than 10 µM; with K-562 it was more than 10 µM; in assay [1] it was more than 10 µM.

Regarding `CN1CCCC(Nc2nc3cc(-c4nnn[nH]4)ccc3c3sccc23)C1` (stereo not drawn), the values for the inhibition at 0.5 µM on recombinant human PIM1 and at recombinant human CK2 were 90.9% and 31.4%, respectively. The IC50 at recombinant human PIM1 was 0.109 µM; in the assay on MV-4-11, 0.658 µM; in the assay on K-562, more than 10 µM; in assay [1], more than 10 µM.

On to `CC1(C)CC(Nc2nc3cc(-c4nnn[nH]4)ccc3c3sccc23)CC(C)(C)N1`, for which the inhibition at 0.5 µM at recombinant human PIM1 was 32.7%; at recombinant human CK2, -5.33%. Further, the IC50 (in the assay on MV-4-11; in the assay with K-562; in assay [1]) was more than 10 µM throughout.
